Common to all, as to format: functional, cell-based
Assay [1] addresses T1, D(1A) dopamine receptor (Homo sapiens, UniProt P21728). The assay can be described thus: Antagonist activity at D1 receptor (unknown origin) expressed in CHOK1 cells assessed as inhibition of SKF38393-induced cAMP accumulation measured after 30 mins.
The target in assay [2] is T2, D(2) dopamine receptor (Homo sapiens, UniProt P14416). The assay can be described thus: Antagonist activity at D2 receptor (unknown origin) expressed in CHOK1 cells assessed as inhibition of dopamine-induced calcium flux preincubated for 60 mins at 37 degC followed by 15 mins incubation under room temperature and subsequent dopamine addition measured after 20 secs for 100 secs by calcium-4 dye based FLIPR assay. (In general: Calcium assays in cells follow changes in intracellular calcium, usually with a dye or a luminescent sensor.)

Assay [3] has as its target T1, D(1A) dopamine receptor. As to the kind of experiment: Agonist activity at D1 receptor (unknown origin) expressed in CHOK1 cells assessed as increase in cAMP accumulation at 10 uM measured after 30 mins.
The target of assay [4] is T2, D(2) dopamine receptor. As to the kind of experiment: Agonist activity at D2 receptor (unknown origin) expressed in CHOK1 cells assessed as increase in calcium flux at 10 uM incubated for 60 mins at 37 degC followed by 15 mins incubation under room temperature measured after 20 secs for 100 secs by calcium-4 dye based FLIPR assay relative to control.

This note sets out measurements from ChEMBL document CHEMBL4339211 (Bioorg Med Chem, 2019).

T1 sequence (P21728 whole entry): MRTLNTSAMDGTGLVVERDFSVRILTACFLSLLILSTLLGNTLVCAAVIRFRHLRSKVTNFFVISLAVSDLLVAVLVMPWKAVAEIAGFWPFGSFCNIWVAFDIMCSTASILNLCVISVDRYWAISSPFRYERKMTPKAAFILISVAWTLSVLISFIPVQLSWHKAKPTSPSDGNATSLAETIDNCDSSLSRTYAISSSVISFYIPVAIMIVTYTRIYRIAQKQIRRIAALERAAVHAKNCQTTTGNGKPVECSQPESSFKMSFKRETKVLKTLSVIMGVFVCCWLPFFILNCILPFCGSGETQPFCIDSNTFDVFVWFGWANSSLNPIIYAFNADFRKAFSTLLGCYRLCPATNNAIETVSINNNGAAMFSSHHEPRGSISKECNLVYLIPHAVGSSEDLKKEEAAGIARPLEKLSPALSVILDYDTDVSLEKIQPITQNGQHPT
T2 sequence (P14416 whole entry): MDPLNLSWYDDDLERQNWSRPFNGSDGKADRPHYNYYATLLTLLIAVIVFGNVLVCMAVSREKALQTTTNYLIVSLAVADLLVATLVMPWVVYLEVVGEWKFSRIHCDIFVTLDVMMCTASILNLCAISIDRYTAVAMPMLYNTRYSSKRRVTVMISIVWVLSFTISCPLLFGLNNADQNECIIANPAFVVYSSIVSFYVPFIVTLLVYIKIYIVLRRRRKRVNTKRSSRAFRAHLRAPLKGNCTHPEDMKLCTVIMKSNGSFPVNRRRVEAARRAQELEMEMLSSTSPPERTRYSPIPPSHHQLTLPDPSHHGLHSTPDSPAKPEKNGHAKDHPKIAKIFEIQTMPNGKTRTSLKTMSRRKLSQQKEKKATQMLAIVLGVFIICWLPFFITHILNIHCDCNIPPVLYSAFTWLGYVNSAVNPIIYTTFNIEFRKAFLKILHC

Turning to `COc1cc2c(cc1OC)C1Cc3ccc(OC)c(O)c3CN1CC2` (racemic), the half-inhibitory concentration (IC50) at D(1A) dopamine receptor [1] was determined as 0.41 µM; at D(2) dopamine receptor [2], 3.11 µM. The values for the Activity on D(1A) dopamine receptor [3] and on D(2) dopamine receptor [4] were -4.32% and 5.52%, respectively.

`COc1cc2c(cc1O)CC1c3cc4c(cc3CCN1C2)OCO4` (racemic): the IC50 at D(1A) dopamine receptor [1] is > 10 µM; on D(2) dopamine receptor [2] it was 4.94 µM. In addition, the results for the Activity on D(1A) dopamine receptor [3] and at D(2) dopamine receptor [4] were -3.7% and 3.81%, respectively.

On to `COc1cc2c(cc1OC)[C@@H]1Cc3ccc(OC)c(OC)c3CN1CC2` [TETRAHYDROPALMATINE], for which the IC50 on D(1A) dopamine receptor [1] came out at 1.63 µM; on D(2) dopamine receptor [2], 0.45 µM. The Activity was -7.43% on D(1A) dopamine receptor [3] and 3.51% at D(2) dopamine receptor [4].

`COc1ccc2c(c1O[C@@H]1O[C@H](CO)[C@@H](O)[C@H](O)[C@H]1O)CN1CCc3cc4c(cc3[C@@H]1C2)OCO4`: the concentration for half-maximal inhibition (IC50) on D(1A) dopamine receptor [1] and on D(2) dopamine receptor [2] was > 10 µM each time. The Activity at D(1A) dopamine receptor [3] was -1.05%; on D(2) dopamine receptor [4], 2.96%.

Consider `COc1cc2c(cc1OC)C1Cc3c(cc(O)c(OC)c3OC)CN1CC2` (racemic), for which the IC50 on D(1A) dopamine receptor [1] is > 10 µM; at D(2) dopamine receptor [2], 8.81 µM. For the same compound, the Activity came to 5.95% on D(1A) dopamine receptor [3] and 6.88% on D(2) dopamine receptor [4].

In the case of `COc1ccc2c(c1OC)CN1CCc3cc(O)c(O)cc3C1C2` (racemic), the values for the IC50 at D(1A) dopamine receptor [1] and at D(2) dopamine receptor [2] were 0.63 µM and 0.04 µM, respectively. Moreover, the Activity on D(1A) dopamine receptor [3] was -3.17%; on D(2) dopamine receptor [4] it was 2.53%.

On to `COc1ccc2c(c1O)CN1CCc3cc(O)c(O)cc3C1C2` (racemic), for which the IC50 was 0.39 µM at D(1A) dopamine receptor [1] and 0.076 µM on D(2) dopamine receptor [2]. Also, the Activity is -5.41% on D(1A) dopamine receptor [3] and 4.27% on D(2) dopamine receptor [4].

Turning to `Oc1cccc2c1CC1c3cc4c(cc3CCN1C2)OCO4` (racemic), the IC50 at D(1A) dopamine receptor [1] came to 1.03 µM; at D(2) dopamine receptor [2], 0.19 µM. Further, the values for the Activity at D(1A) dopamine receptor [3] and at D(2) dopamine receptor [4] were 1.8% and 2.22%, respectively.

As to `COc1ccc2c(c1O[C@@H]1O[C@H](CO)[C@@H](O)[C@H](O)[C@H]1O)CN1CCc3cc4c(cc3[C@H]1C2)OCO4`, the IC50 at D(1A) dopamine receptor [1] and at D(2) dopamine receptor [2] was > 10 µM in each case. The Activity on D(1A) dopamine receptor [3] was -7.46%; at D(2) dopamine receptor [4], 3.17%.

In the case of `COc1cc2c(cc1O)CC1c3cc(OC)c(OC)cc3CCN1C2` (racemic), the IC50 amounted to 0.67 µM on D(1A) dopamine receptor [1] and 2.59 µM on D(2) dopamine receptor [2]. Besides, the Activity on D(1A) dopamine receptor [3] is -5.16%; at D(2) dopamine receptor [4] it was 3.35%.

For `c1ccc(COc2cccc3c2CC2c4cc5c(cc4CCN2C3)OCO5)cc1` (racemic), the IC50 on D(1A) dopamine receptor [1] and on D(2) dopamine receptor [2] was > 10 µM each time. Also, the values for the Activity at D(1A) dopamine receptor [3] and at D(2) dopamine receptor [4] were 4.48% and 2.5%, respectively.

Take `COc1cc2c(cc1OC)C1Cc3c(cc(OC)c(O)c3OC)CN1CC2` (racemic): the IC50 is > 10 µM at D(1A) dopamine receptor [1] and 6.36 µM at D(2) dopamine receptor [2]. Further, the results for the Activity on D(1A) dopamine receptor [3] and at D(2) dopamine receptor [4] were -4.17% and 3.74%, respectively.

Consider `Oc1ccc2c(c1)CN1CCc3cc4c(cc3C1C2)OCO4` (racemic), for which the values for the IC50 at D(1A) dopamine receptor [1] and at D(2) dopamine receptor [2] were 1.42 µM and 0.5 µM, respectively. Further, the Activity on D(1A) dopamine receptor [3] was -4.41%; at D(2) dopamine receptor [4] it was 2.17%.

On to `COc1ccc2c(c1OC(C)=O)CN1CCc3cc4c(cc3C1C2)OCO4` (racemic), for which the IC50 at D(1A) dopamine receptor [1] turned out to be 1.08 µM; at D(2) dopamine receptor [2] it was 0.42 µM. The Activity on D(1A) dopamine receptor [3] came to 0%; at D(2) dopamine receptor [4] it was 4.5%.

`COc1cc(/C=C/C(=O)Oc2c(OC)ccc3c2CN2CCc4cc5c(cc4C2C3)OCO5)ccc1OC(C)=O` (racemic): the IC50 on D(1A) dopamine receptor [1] is > 10 µM; on D(2) dopamine receptor [2], 7.96 µM. For the same compound, the figures for the Activity on D(1A) dopamine receptor [3] and on D(2) dopamine receptor [4] were -3.69% and 2.97%, respectively.

Take `COc1cc2c(c(OC)c1O)CC1c3cc4c(cc3CCN1C2)OCO4` (racemic): the half-inhibitory concentration (IC50) stood at 7.42 µM at D(1A) dopamine receptor [1] and 1.08 µM at D(2) dopamine receptor [2]. The Activity is -5.75% at D(1A) dopamine receptor [3] and 1.29% on D(2) dopamine receptor [4].

`COc1cc2c(cc1O)C1Cc3cc(OC)c(OC)cc3CN1CC2` (racemic): the values for the half-inhibitory concentration (IC50) at D(1A) dopamine receptor [1] and at D(2) dopamine receptor [2] were > 10 µM and 3.58 µM, respectively. In addition, the results for the Activity on D(1A) dopamine receptor [3] and at D(2) dopamine receptor [4] were 24.4% and 3.67%, respectively.

As to `COc1cc2c(cc1OC)C1Cc3ccc(O)cc3CN1CC2` (racemic), the IC50 stood at 6.51 µM on D(1A) dopamine receptor [1] and 1.53 µM at D(2) dopamine receptor [2]. The Activity is -3.91% at D(1A) dopamine receptor [3] and 2.39% at D(2) dopamine receptor [4].

In general, IC50 refers to the midpoint of a concentration-inhibition curve.
